Patent publication US5006515A, “Pharmaceuticals, phosphorus-containing 2-isoxazolines and isoxazoles contained therein” (Hoechst Aktiengesellschaft, priority 1987, dated 1991)

Test system: active Arthus reaction
Experiment: Active Arthus reaction in the rat
Assay type: in vivo, Sprague-Dawley rats
Conditions: Rattus norvegicus, po, 4 h, oral dose 12 mg/kg, 4 h after ovalbumin challenge
Protocol: The experimental animals used were female and male Sprague-Dawley rats with a body weight between 80 and 100 g which received subcutaneous injections into the tail-head of 0.5 ml of an emulsion of pertussis vaccine and ovalbumin in liquid paraffin. After two weeks, the rats were divided into groups each of 8 animals. 24 hours and 1 hour before induction of the Arthus reaction by injection of 0.1 ml of a 0.4% strength ovalbumin solution into the right hind paw, the particular test substance or the pure vehicle (positive control) was administered orally, sodium chloride solution was injected into the left paw. One group of unsensitized animals (negative control group) was likewise treated with ovalbumin in order to be able to rule out nonspecific reactions to the protein. The parameter used for measuring the action of the product was the percentage change in the increase in paw volume compared with that in the control group which was sensitized but untreated (positive control) 4 hours after ovalbumin challenge, when the swelling had reached its maximum.

With CP(=O)(NCC(=O)OCc1ccccc1)C1CC(c2ccccc2)=NO1 (stereo not drawn) [57/58, N-[3-Phenyl-2-isoxazolin-5-yl(P-methyl)phosphinoyl]glycine benzyl ester] the change in vivo at 12 mg/kg was 22%.

Same assay, conditions: Rattus norvegicus, po, 4 h, oral dose 25 mg/kg, 4 h after ovalbumin challenge; read-out: Active Arthus reaction % change

Molecule O=P(O)(O)c1cc(-c2ccccn2)no1 [Example 50] has a change in vivo at 25 mg/kg of -18%.

Same assay, conditions: Rattus norvegicus, po, 4 h, oral dose 35 mg/kg, 4 h after ovalbumin challenge; read-out: Active Arthus reaction % change

First: CP(C)(=O)C1CC(c2ccccn2)=NO1 (stereo not drawn) [Example 105]
Second: O=P(O)(O)C1CC(c2ccccn2)=NO1 (stereo not drawn) [Example 42]
The change in vivo at 35 mg/kg of the first is higher: -23% for the first, -33% for the second.

Compared with CP(C)(=O)C1CC(c2ccccc2)=NO1 (stereo not drawn) [Example 17, 3-Phenyl-2-isoxazolin-5-yldimethylphosphine oxide], O=P(O)(O)C1CC(c2ccccc2O)=NO1 (stereo not drawn) [Example 73, 3-(2-Hydroxyphenyl)-2-isoxazolin-5-ylphosphonic acid] is lower in change in vivo at 35 mg/kg: -34% for the first, -44% for the second.

Molecule O=C(O)c1ccc(C2=NOC(P(=O)(O)O)C2)cc1 (stereo not drawn) [Example 87] has a change in vivo at 35 mg/kg of -29%.

Same assay, conditions: Rattus norvegicus, po, 4 h, oral dose 50 mg/kg, 4 h after ovalbumin challenge

Going from O=P(O)(O)C1CC(C=Cc2ccccc2)=NO1 (stereo not drawn) [Example 52] to O=P(O)(O)C1CC(Cc2ccccc2)=NO1 (stereo not drawn) [Example 49], the change in vivo at 50 mg/kg falls from -15% to -59%.

Going from O=P(O)(O)c1cc(-c2ccccc2)no1 [Example 46] to O=P(O)(O)c1cc(-c2ccncc2)no1 [Example 51], the change in vivo at 50 mg/kg rises from -36% to 17%.

Going from O=P(O)(O)C1CC(c2cccc3ccccc23)=NO1 (stereo not drawn) [Example 45] to CP(=O)(O)C1CC(c2cccc3ccccc23)=NO1 (stereo not drawn) [Example 32], the change in vivo at 50 mg/kg rises from -25% to 42%.

First: CN(C)P(=O)(C1CC(c2ccccc2)=NO1)N(C)C (stereo not drawn) [Example 59, 3-Phenyl-2-isoxazolin-5-ylphosphonic tetra methyldiamide]
Second: O=P(O)(O)CC1CC(c2ccccc2)=NO1 (stereo not drawn) [Example 39]
The change in vivo at 50 mg/kg of the first is lower: -25% for the first, 24% for the second.

Compared with O=[N+]([O-])c1ccc(C2=NOC(P(=O)(O)O)C2)cc1 (stereo not drawn) [Example 69, 3-(4-Nitrophenyl)-2-isoxazolin-5-ylphosphonic acid], O=P(O)(O)C1CC(c2ccc(Cl)cc2)=NO1 (stereo not drawn) [Example 40] is lower in change in vivo at 50 mg/kg: -20% for the first, -23% for the second.

Compared with O=P(O)(O)C1CC(c2cccnc2)=NO1 (stereo not drawn) [Example 88], O=P(O)(O)C1CC(c2ccncc2)=NO1 (stereo not drawn) [Example 43] is higher in change in vivo at 50 mg/kg: -50% for the first, -14% for the second.

Going from O=P(O)(O)C1CC(c2ccc(F)cc2)=NO1 (stereo not drawn) [Example 67, 3-(4-Fluorophenyl)-2-isoxazolin-5-ylphosphonic acid] to CP(=O)(O)C1CC(Cc2ccccc2)=NO1 (stereo not drawn) [Example 31], the change in vivo at 50 mg/kg rises from -35% to 66%.

Same assay, conditions: Rattus norvegicus, po, 4 h, oral dose 100 mg/kg, 4 h after ovalbumin challenge; read-out: Active Arthus reaction % change

With COc1ccc(C2=NOC(P(=O)(O)O)C2)cc1 (stereo not drawn) [Example 48] the change in vivo at 100 mg/kg was 10%.

Target: leucine aminopeptidase
Experiment: Inhibition of leucine aminopeptidase
Assay type: biochemical
Conditions: substrate L-leucine 4-nitroanilide
Protocol: The activity of the enzyme aminopeptidase B was determined photometrically using the substrate L-lysine 2-naphthylamide at room temperature. […] In the same way, the inhibition of leucine aminopeptidase was investigated using L-leucine 4-nitroanilide as enzyme substrate. The IC50 values are compiled in Table 6.

First: O=P(O)(O)C1CC(c2cccc3ccccc23)=NO1 (stereo not drawn) [Example 45]
Second: O=P(O)(O)C1CC(c2ccc(F)cc2)=NO1 (stereo not drawn) [Example 67, 3-(4-Fluorophenyl)-2-isoxazolin-5-ylphosphonic acid]
The “Leucine aminopeptidase IC50” value of the first is higher: 92 μug/ml for the first, 57 μug/ml for the second.

Compared with O=[N+]([O-])c1ccc(C2=NOC(P(=O)(O)O)C2)cc1 (stereo not drawn) [Example 69, 3-(4-Nitrophenyl)-2-isoxazolin-5-ylphosphonic acid], COc1ccc(C2=NOC(P(=O)(O)O)C2)cc1 (stereo not drawn) [Example 48] is higher in “Leucine aminopeptidase IC50” value: 27 μug/ml for the first, 100 μug/ml for the second.

Test system: not listed separately
Experiment: Acute toxicity
Design: species or system mice
Conditions: mouse, in vivo, ip, single dose, mortality within 7 days
Protocol: The LD50 values were determined by the standard method via the mortality occurring within 7 days in NMRI (Naval Medical Research Institute) mice (6 animals per dose) after a single intraperitoneal (i.p.) or intravenous (i.v.) dose.

First: O=P(O)(O)C1CC(c2cccc3ccccc23)=NO1 (stereo not drawn) [Example 45]
Second: CP(=O)(O)C1CC(c2cccc3ccccc23)=NO1 (stereo not drawn) [Example 32]
The LD50 at 168 h of the first is lower: 75 to 150 mg/kg for the first, 600 to 1200 mg/kg for the second.

First: O=P(O)(O)CC1CC(c2ccccc2)=NO1 (stereo not drawn) [Example 39]
Second: O=P(O)(O)C1CC(c2ccccc2O)=NO1 (stereo not drawn) [Example 73, 3-(2-Hydroxyphenyl)-2-isoxazolin-5-ylphosphonic acid]
The LD50 at 168 h of the first is higher: 600 to 1200 mg/kg for the first, 150 to 300 mg/kg for the second.

With COc1ccc(C2=NOC(P(=O)(O)O)C2)cc1 (stereo not drawn) [Example 48] the LD50 at 168 h was 300 to 600 mg/kg.

Same assay, conditions: mouse, in vivo, iv, single dose, mortality within 7 days

O=P(O)(O)c1cc(-c2ccccc2)no1 [Example 46] and O=P(O)(O)c1cc(-c2ccncc2)no1 [Example 51] cannot be ordered by LD50 at 168 h: greater than 200 mg/kg for the first, greater than 200 mg/kg for the second.

CP(C)(=O)C1CC(c2ccccn2)=NO1 (stereo not drawn) [Example 105] and O=P(O)(O)C1CC(c2ccccn2)=NO1 (stereo not drawn) [Example 42] cannot be ordered by LD50 at 168 h: greater than 100 mg/kg for the first, greater than 200 mg/kg for the second.

CN(C)P(=O)(C1CC(c2ccccc2)=NO1)N(C)C (stereo not drawn) [Example 59, 3-Phenyl-2-isoxazolin-5-ylphosphonic tetra methyldiamide] and CP(C)(=O)C1CC(c2ccccc2)=NO1 (stereo not drawn) [Example 17, 3-Phenyl-2-isoxazolin-5-yldimethylphosphine oxide] cannot be ordered by LD50 at 168 h: greater than 200 mg/kg for the first, greater than 200 mg/kg for the second.

O=[N+]([O-])c1ccc(C2=NOC(P(=O)(O)O)C2)cc1 (stereo not drawn) [Example 69, 3-(4-Nitrophenyl)-2-isoxazolin-5-ylphosphonic acid] and O=P(O)(O)C1CC(c2ccc(Cl)cc2)=NO1 (stereo not drawn) [Example 40] cannot be ordered by LD50 at 168 h: greater than 100 mg/kg for the first, greater than 200 mg/kg for the second.

O=P(O)(O)c1cc(-c2ccccn2)no1 [Example 50] and O=P(O)(O)C1CC(Cc2ccccc2)=NO1 (stereo not drawn) [Example 49] cannot be ordered by LD50 at 168 h: greater than 200 mg/kg for the first, greater than 200 mg/kg for the second.

Compared with CP(=O)(NCC(=O)OCc1ccccc1)C1CC(c2ccccc2)=NO1 (stereo not drawn) [57/58, N-[3-Phenyl-2-isoxazolin-5-yl(P-methyl)phosphinoyl]glycine benzyl ester], CP(=O)(O)C1CC(Cc2ccccc2)=NO1 (stereo not drawn) [Example 31] is higher in LD50 at 168 h: 50 to 100 mg/kg for the first, greater than 200 mg/kg for the second.

O=P(O)(O)C1CC(c2ccncc2)=NO1 (stereo not drawn) [Example 43] gave an LD50 at 168 h greater than 200 mg/kg.

Test system: DTH reaction to sheep erythrocytes
Experiment: Delayed-type hypersensitivity (DTH) reaction to sheep erythrocytes
Assay type: in vivo, female NMRI mice
Conditions: single i.p. dose of 40 mg/kg; maximal stimulation by Example 34 = 100%
Protocol: Groups each comprising 5 female NMRI mice with a body weight of 18 to 20 g were formed, and each animal was given 10^6 or 10^9 sheep red blood cells intravenously. Sheep erythrocytes are regarded in immunology as a standard antigen with which it is possible to check cellular and humoral immunoreactivity, especially the functioning of the T-cell-dependent component of the immune system, the so-called T-helper cells. The test substances were administered, in intraperitoneal doses of 5 to 100 mg/kg in physiological saline, at the same time as the antigen. After 5 days, each animal was given an injection of 2×10^8 sheep erythrocytes into the footpad. 24 hours later, the swelling of the foot was measured. The foot swelling is induced by a skin reaction of the delayed type (DTH reaction) and, as is known to those skilled in the art, is a measure of the cellular immune response (J. Immunol. 101 (1968), 830-845). The test results obtained with the product of Example 34, by way of example, are compiled in Table 7 and illustrate that the compounds of the formula I--administered prophylactically--are able to increase the cellular immune response after immunization with the antigen by stimulation of the T-cell system, with the stimulant action reaching its optimum in this experiment at a dose of 25 mg/kg.

With O=P(O)(O)CC1CC(c2ccccc2)=NO1 (stereo not drawn) [Example 39] the “Relative stimulation of the DTH reaction” value was 136%.
